# Active and inactive are the calls of the source. The rule behind the calls is not given here.
# Tests used:
# [1] = AUC (0 to t) in male Sprague-Dawley rat at 15 mg/kg, po measured upto 30 hrs by LC-MS/MS analysis; type: ADME, organism-based; settings: in vivo
# [2] = biological target: Exportin-1 (Homo sapiens) (UniProt O14980); experiment: Competitive inhibition of human recombinant CRM1 at 2 uM incubated for 2 hrs in presence of 3-(1-((E)-3-(methoxyamino)-3-oxo-2-(pyrimidin-5-yl)prop-1-en-1-yl)-1H-1,2,4-triazol-3-yl)-5-(trifluoromethyl)phenyl 3-(5-((3aS,4S,6aR)-2-oxohexahydro-1H-thieno[3,4-d]imidazol-4-yl)pentanamido)propanoate by pull down based Western blot analysis
# Chain of Exportin-1 (Homo sapiens) (O14980 whole entry): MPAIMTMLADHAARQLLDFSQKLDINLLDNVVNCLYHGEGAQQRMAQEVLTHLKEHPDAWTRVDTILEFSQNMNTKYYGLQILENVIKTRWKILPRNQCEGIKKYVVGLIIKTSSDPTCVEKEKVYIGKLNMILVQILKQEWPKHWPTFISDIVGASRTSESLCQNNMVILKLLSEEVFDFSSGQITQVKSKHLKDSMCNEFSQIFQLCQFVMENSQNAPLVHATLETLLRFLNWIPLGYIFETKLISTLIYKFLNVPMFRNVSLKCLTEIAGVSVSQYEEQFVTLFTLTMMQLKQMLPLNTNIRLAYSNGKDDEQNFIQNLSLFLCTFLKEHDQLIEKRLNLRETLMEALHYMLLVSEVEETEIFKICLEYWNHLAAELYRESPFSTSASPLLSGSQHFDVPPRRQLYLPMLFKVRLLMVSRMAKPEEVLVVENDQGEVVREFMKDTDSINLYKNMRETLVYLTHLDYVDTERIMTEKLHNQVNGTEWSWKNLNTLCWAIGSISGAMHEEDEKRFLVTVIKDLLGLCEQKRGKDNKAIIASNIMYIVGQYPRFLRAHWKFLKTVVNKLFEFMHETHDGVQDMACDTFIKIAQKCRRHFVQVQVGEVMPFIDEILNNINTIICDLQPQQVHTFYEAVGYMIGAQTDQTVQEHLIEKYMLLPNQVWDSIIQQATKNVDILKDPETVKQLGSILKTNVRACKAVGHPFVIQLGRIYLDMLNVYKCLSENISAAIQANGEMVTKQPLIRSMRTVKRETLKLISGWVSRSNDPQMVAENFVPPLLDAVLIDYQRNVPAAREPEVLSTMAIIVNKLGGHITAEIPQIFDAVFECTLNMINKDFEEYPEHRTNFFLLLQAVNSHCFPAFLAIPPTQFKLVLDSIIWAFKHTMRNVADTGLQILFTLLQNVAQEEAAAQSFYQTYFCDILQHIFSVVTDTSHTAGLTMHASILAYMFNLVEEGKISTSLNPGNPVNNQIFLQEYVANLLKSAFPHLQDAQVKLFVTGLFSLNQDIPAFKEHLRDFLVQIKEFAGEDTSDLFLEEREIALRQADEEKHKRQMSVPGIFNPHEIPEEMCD
# [3] = Metabolic stability in monkey liver microsomes assessed as half life measured upto 60 mins in presence of NADPH by LC/MS-MS analysis; type: ADME, Macaca mulatta, Microsome; settings: rhesus monkey
# [4] = Cmax in male Sprague-Dawley rat at 30 mg/kg, po measured upto 30 hrs by LC-MS/MS analysis; type: ADME, organism-based; settings: in vivo
# [5] = Cmax in male Sprague-Dawley rat at 15 mg/kg, po measured upto 30 hrs by LC-MS/MS analysis; type: ADME, organism-based; settings: in vivo
# [6] = biological target: Exportin-1 (Homo sapiens) (UniProt O14980); experiment: Reversible binding affinity to CRM1 in human U2OS cells incubated for 4 hrs by DAPI staining based fluorescence microscopic analysis; type: cell-based
# [7] = test system: MM1.S; experiment: Induction of apoptosis in human MM1.S cells assessed as increase in cleaved caspase level at 0.5 to 1 uM incubated for 48 hrs by Western blot analysis; type: functional, cell-based; settings: dose 0.5-1 µM
# [8] = test system: LAMA-84; experiment: Antiproliferative activity against human LAMA-84 cells assessed as inhibition of cell growth incubated for 72 hrs by celltiter-glo assay; type: functional, cell-based; settings: LAMA-84, 72 h
# [9] = Tmax in male Sprague-Dawley rat at 30 mg/kg, po measured upto 30 hrs by LC-MS/MS analysis; type: ADME, organism-based; settings: in vivo
# [10] = test system: AN3-CA; experiment: Antiproliferative activity against human AN3-CA cells assessed as inhibition of cell growth incubated for 72 hrs by celltiter-glo assay; type: functional, cell-based
# [11] = Cmax in male Sprague-Dawley rat at 10 mg/kg, po measured upto 30 hrs by LC-MS/MS analysis; type: ADME, organism-based; settings: in vivo
# [12] = test system: HCT-116; experiment: Antiproliferative activity against human HCT-116 cells assessed as inhibition of cell growth incubated for 72 hrs by celltiter-glo assay; type: functional, cell-based; settings: HCT-116, 72 h
# [13] = biological target: Ran-specific GTPase-activating protein (Homo sapiens, UniProt P43487); experiment: Inhibition of RANBP1 nuclear export in human U2OS cells assessed as increase in fluorescence intensity at 100 uM measured for 15 mins by DAPI staining based fluorescence microscopic analysis; type: cell-based
# Chain of Ran-specific GTPase-activating protein (P43487 whole entry): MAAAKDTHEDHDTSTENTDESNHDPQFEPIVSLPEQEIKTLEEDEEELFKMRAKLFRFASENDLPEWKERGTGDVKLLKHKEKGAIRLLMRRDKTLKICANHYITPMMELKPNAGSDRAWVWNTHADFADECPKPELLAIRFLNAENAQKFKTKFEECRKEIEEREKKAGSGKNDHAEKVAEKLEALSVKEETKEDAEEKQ
# [14] = Half life in male Sprague-Dawley rat at 2 mg/kg, iv measured upto 30 hrs by LC-MS/MS analysis; type: ADME, organism-based; settings: in vivo
# [15] = test system: MM1.S; experiment: Induction of apoptosis in human MM1.S cells assessed as increase in p53 level at 0.5 to 1 uM incubated for 48 hrs by Western blot analysis; type: functional, cell-based; settings: dose 0.5-1 µM
# [16] = AUC (0 to t) in male Sprague-Dawley rat at 10 mg/kg, po measured upto 30 hrs by LC-MS/MS analysis; type: ADME, organism-based; settings: in vivo
# [17] = Toxicity in NOD-SCID mouse assessed as appearance of large nucleus in tumor at 60 mg/kg, po measured every 2 days for 21 days by H and E staining based analysis; type: organism-based; settings: in vivo, 504 h, time 21 day
# [18] = biological target: Exportin-1 (Homo sapiens) (UniProt O14980); experiment: Reversible competitive inhibition of human recombinant CRM1 at 2 uM incubated for 2 hrs in presence of 3-(1-((E)-3-(methoxyamino)-3-oxo-2-(pyrimidin-5-yl)prop-1-en-1-yl)-1H-1,2,4-triazol-3-yl)-5-(trifluoromethyl)phenyl 3-(5-((3aS,4S,6aR)-2-oxohexahydro-1H-thieno[3,4-d]imidazol-4-yl)pentanamido)propanoate by pull down based Western blot analysis
# [19] = biological target: Exportin-1 (Homo sapiens) (UniProt O14980); experiment: Inhibition of CRM1 in human MM1.S cells assessed as accumulation of p53 protein level at 0.5 to 1 uM incubated for 24 hrs by Western blot analysis; type: cell-based; settings: dose 0.5-1 µM
# [20] = Toxicity in BALB/c mouse assessed as shortened intestinal tract at 90 to 120 mg/kg, po administered once daily for 21 days; type: organism-based; settings: in vivo, 504 h, dose 90-120 mg/kg, time 21 day
# [21] = Metabolic stability in rat liver microsomes assessed as intrinsic clearance measured upto 60 mins in presence of NADPH by LC/MS-MS analysis; type: ADME, Microsome; settings: read-out: CLH
# [22] = Cmax in male Sprague-Dawley rat plasma at 10 mg/kg, IG measured at 6 hrs by LC-MS/MS analysis; type: ADME, organism-based; settings: po
# [23] = AUC (0 to t) in male Sprague-Dawley rat at 30 mg/kg, po measured upto 30 hrs by LC-MS/MS analysis; type: ADME, organism-based; settings: in vivo
# [24] = test system: BXPC-3; experiment: Antiproliferative activity against human BXPC-3 cells assessed as inhibition of cell growth incubated for 72 hrs by celltiter-glo assay; type: functional, cell-based; settings: BXPC-3, 72 h
# [25] = biological target: Voltage-gated inwardly rectifying potassium channel KCNH2 (Homo sapiens, UniProt Q12809); experiment: Inhibition of hERG in HEK293 cells; type: toxicity, cell-based
# Chain of Voltage-gated inwardly rectifying potassium channel KCNH2 (Q12809 whole entry): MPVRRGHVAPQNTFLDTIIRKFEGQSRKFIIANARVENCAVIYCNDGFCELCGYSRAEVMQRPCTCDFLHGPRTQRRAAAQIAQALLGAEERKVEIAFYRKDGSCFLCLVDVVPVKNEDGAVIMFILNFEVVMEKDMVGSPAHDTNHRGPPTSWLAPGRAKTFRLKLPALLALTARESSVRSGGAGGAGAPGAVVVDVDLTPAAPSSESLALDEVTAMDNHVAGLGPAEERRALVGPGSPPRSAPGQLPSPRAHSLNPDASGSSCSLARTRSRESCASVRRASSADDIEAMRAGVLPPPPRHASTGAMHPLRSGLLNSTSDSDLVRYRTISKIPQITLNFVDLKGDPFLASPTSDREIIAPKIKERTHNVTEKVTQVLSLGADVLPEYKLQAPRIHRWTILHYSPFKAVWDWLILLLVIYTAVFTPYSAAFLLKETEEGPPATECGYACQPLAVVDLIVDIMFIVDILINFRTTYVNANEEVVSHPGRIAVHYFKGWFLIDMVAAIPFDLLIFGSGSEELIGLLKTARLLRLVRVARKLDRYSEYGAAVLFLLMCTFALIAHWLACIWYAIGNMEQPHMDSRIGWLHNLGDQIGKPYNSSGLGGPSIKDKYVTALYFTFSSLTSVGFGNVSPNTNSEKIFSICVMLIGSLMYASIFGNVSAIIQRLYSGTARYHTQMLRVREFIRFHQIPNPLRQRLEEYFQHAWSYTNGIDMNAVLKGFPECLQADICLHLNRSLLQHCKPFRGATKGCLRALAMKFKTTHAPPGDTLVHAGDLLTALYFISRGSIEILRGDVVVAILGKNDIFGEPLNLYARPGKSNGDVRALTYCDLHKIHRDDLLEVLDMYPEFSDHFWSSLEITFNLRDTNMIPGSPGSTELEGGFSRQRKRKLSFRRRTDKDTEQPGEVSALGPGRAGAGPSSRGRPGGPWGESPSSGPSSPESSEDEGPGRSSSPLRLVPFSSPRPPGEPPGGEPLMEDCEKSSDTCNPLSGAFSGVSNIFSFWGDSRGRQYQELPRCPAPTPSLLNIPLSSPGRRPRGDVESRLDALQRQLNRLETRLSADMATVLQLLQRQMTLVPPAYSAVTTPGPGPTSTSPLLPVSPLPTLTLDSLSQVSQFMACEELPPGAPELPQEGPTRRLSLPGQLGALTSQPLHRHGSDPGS
# [26] = Oral bioavailability in male Sprague-Dawley rat at 15 mg/kg measured upto 30 hrs by LC-MS/MS analysis; type: ADME, organism-based; settings: in vivo
# [27] = AUC in male Sprague-Dawley rat brain at 10 mg/kg, IG measured at 6 hrs by LC-MS/MS analysis; type: ADME, organism-based; settings: po
# [28] = Metabolic stability in monkey liver microsomes assessed as intrinsic clearance measured upto 60 mins in presence of NADPH by LC/MS-MS analysis; type: ADME, Macaca mulatta, Microsome; settings: rhesus monkey, read-out: CLH
# [29] = AUC (0 to infinity) in male Sprague-Dawley rat at 30 mg/kg, po measured upto 30 hrs by LC-MS/MS analysis; type: ADME, organism-based; settings: in vivo
# [30] = Half life in male Sprague-Dawley rat at 30 mg/kg, po measured upto 30 hrs by LC-MS/MS analysis; type: ADME, organism-based; settings: in vivo
# [31] = Toxicity in NOD-SCID mouse assessed as shortening of villi in intestine at 15 to 60 mg/kg, po measured every 2 days for 21 days by H and E staining based analysis; type: organism-based; settings: in vivo, 504 h, dose 15-60 mg/kg, time 21 day
# [32] = test system: RPMI-8226; experiment: Antiproliferative activity against human RPMI-8226 cells assessed as inhibition of cell growth incubated for 72 hrs by celltiter-glo assay; type: functional, cell-based; settings: RPMI-8226, 72 h
# [33] = test system: ARH-77; experiment: Antiproliferative activity against human ARH-77 cells assessed as inhibition of cell growth incubated for 72 hrs by celltiter-glo assay; type: functional, cell-based; settings: ARH-77, 72 h
# [34] = Toxicity in NOD-SCID mouse assessed as hyperplasia of crypt in intestine at 15 to 60 mg/kg, po measured every 2 days for 21 days by H and E staining based analysis; type: organism-based; settings: in vivo, 504 h, dose 15-60 mg/kg, time 21 day
# [35] = Toxicity in NOD-SCID mouse implanted with human ARH-77 cells assessed as change in body weight at 15 to 60 mg/kg, po measured every 2 days for 21 days; type: organism-based; settings: in vivo, 504 h, dose 15-60 mg/kg, time 21 day
# [36] = Toxicity in BALB/c mouse assessed as organ abnormalities at 30 to 60 mg/kg, po administered once daily for 21 days; type: organism-based; settings: in vivo, 504 h, dose 30-60 mg/kg, time 21 day
structure (smiles),measurement,setting,value
CONC(=O)/C(=C/n1cnc(-c2cc(C(F)(F)F)cc(C(F)(F)F)c2)n1)c1cncnc1,AUC(0-t) at 30 h,[1],5080 ng·h/mL
same,inhibition,[2],Active
same,half-life,[3],> 2 h
same,Cmax,[4],844 ng/mL
same,Cmax,[5],793 ng/mL
same,Activity,[6],Active
same,Activity,[7],Active
same,IC50,[8],1480 nM
same,Tmax,[9],0.3 h
same,IC50,[10],1080 nM
same,Cmax,[11],899 ng/mL
same,IC50,[12],435 nM
same,inhibition,[13],Active
same,half-life,[14],4.2 h
same,Activity,[15],Active
same,AUC(0-t) at 30 h,[16],3610 ng·h/mL
same,Activity,[17],Non-toxic
same,inhibition,[18],Active
same,inhibition,[19],Active
same,Activity,[20],Non-toxic
same,microsomal CLint,[21],7.2 µL/min/mg
same,Cmax,[22],18.9 ng/mL
same,AUC(0-t) at 30 h,[23],9000 ng·h/mL
same,IC50,[24],3180 nM
same,IC50,[25],18900 nM
same,bioavailability,[26],52.1%
same,AUC at 6 h,[27],378 ng·h/mL
same,microsomal CLint,[28],8.6 µL/min/mg
same,AUC(0-inf),[29],10400 ng·h/mL
same,half-life,[30],3.6 h
same,Activity,[31],Non-toxic
same,IC50,[32],304 nM
same,IC50,[33],304 nM
same,Activity,[34],Non-toxic
same,Activity,[35],Toxic
same,Activity,[36],Non-toxic

# Reference: ChEMBL document CHEMBL6083277, “Discovery of SZJK-0421: A Novel Potent, Low Toxicity, Selective Second Generation of CRM1 Inhibitor for the Treatment of Both Hematological and Solid Tumors” (J Med Chem, 2024)
